The values that follow are results of earlier work, collected in paper PMC9869109 (Angewandte Chemie (International ed. in English), 2022).

This data set has as its system cell nuclei. As to conditions: previous result ref 12.

As for NBD-llllpY, the nuclear-targeting ability result is “weak nuclear-targeting ability”.
